Measurements as given in paper PMC10569036.

Assays:
[1] = shake flask on a mixture of 185; loss from the water phase only; LC-QTOF peak areas; settings: room
[2] = shake flask on a mixture of 185; loss from the water phase only; LC-Orbitrap peak areas; settings: room

Nc1cc2c3c(c1)C(c1ccccc1)=N[C@@H](NC(=O)c1cccnc1)C(=O)N3CC2
log partition 1-octanol / HPLC water, unbuffered, traces of methanol / DMSO [1]: 1.4 log10 | log partition butyl acetate / HPLC water, unbuffered, traces of methanol / DMSO [1]: 1.224 log10 | log partition chloroform / HPLC water, unbuffered, traces of methanol / DMSO [1]: 1.953 log10 | log partition cyclohexane / HPLC water, unbuffered, traces of methanol / DMSO [1]: -0.8456 log10 | log partition dichloromethane / HPLC water, unbuffered, traces of methanol / DMSO [1]: 2.001 log10 | log partition n-hexane / HPLC water, unbuffered, traces of methanol / DMSO [1]: -0.527 log10 | log partition n-octane / HPLC water, unbuffered, traces of methanol / DMSO [1]: -1.018 log10 | log partition n-undecane / HPLC water, unbuffered, traces of methanol / DMSO [1]: -1.615 log10 | log partition oleylalcohol / HPLC water, unbuffered, traces of methanol / DMSO [1]: 1.111 log10 | log partition toluene / HPLC water, unbuffered, traces of methanol / DMSO [1]: 0.4515 log10 | log partition 1-octanol / HPLC water, unbuffered, traces of methanol / DMSO [2]: 1.8 log10 | log partition butyl acetate / HPLC water, unbuffered, traces of methanol / DMSO [2]: 1.849 log10 | log partition chloroform / HPLC water, unbuffered, traces of methanol / DMSO [2]: 1.811 log10 | log partition cyclohexane / HPLC water, unbuffered, traces of methanol / DMSO [2]: -0.6201 log10 | log partition dichloromethane / HPLC water, unbuffered, traces of methanol / DMSO [2]: 1.949 log10 | log partition n-hexane / HPLC water, unbuffered, traces of methanol / DMSO [2]: -0.5688 log10 | log partition n-octane / HPLC water, unbuffered, traces of methanol / DMSO [2]: -0.5885 log10 | log partition n-undecane / HPLC water, unbuffered, traces of methanol / DMSO [2]: -0.7259 log10 | log partition oleylalcohol / HPLC water, unbuffered, traces of methanol / DMSO [2]: 1.341 log10 | log partition toluene / HPLC water, unbuffered, traces of methanol / DMSO [2]: 0.4674 log10

Cc1cc(C)nc(NS(=O)(=O)c2ccc(N)cc2)n1
log partition 1-octanol / HPLC water, unbuffered, traces of methanol / DMSO [1]: -0.08641 log10 | log partition butyl acetate / HPLC water, unbuffered, traces of methanol / DMSO [1]: -0.1162 log10 | log partition chloroform / HPLC water, unbuffered, traces of methanol / DMSO [1]: -0.2658 log10 | log partition cyclohexane / HPLC water, unbuffered, traces of methanol / DMSO [1]: -0.9757 log10 | log partition dichloromethane / HPLC water, unbuffered, traces of methanol / DMSO [1]: -0.5411 log10 | log partition n-hexane / HPLC water, unbuffered, traces of methanol / DMSO [1]: -1.336 log10 | log partition n-octane / HPLC water, unbuffered, traces of methanol / DMSO [1]: -1.319 log10 | log partition n-undecane / HPLC water, unbuffered, traces of methanol / DMSO [1]: -1.455 log10 | log partition oleylalcohol / HPLC water, unbuffered, traces of methanol / DMSO [1]: -0.5276 log10 | log partition toluene / HPLC water, unbuffered, traces of methanol / DMSO [1]: -1.085 log10 | log partition 1-octanol / HPLC water, unbuffered, traces of methanol / DMSO [2]: -0.03015 log10 | log partition butyl acetate / HPLC water, unbuffered, traces of methanol / DMSO [2]: -0.1328 log10 | log partition chloroform / HPLC water, unbuffered, traces of methanol / DMSO [2]: 0.1061 log10 | log partition cyclohexane / HPLC water, unbuffered, traces of methanol / DMSO [2]: -0.9043 log10 | log partition dichloromethane / HPLC water, unbuffered, traces of methanol / DMSO [2]: -0.3816 log10 | log partition n-hexane / HPLC water, unbuffered, traces of methanol / DMSO [2]: -0.631 log10 | log partition n-octane / HPLC water, unbuffered, traces of methanol / DMSO [2]: -0.6854 log10 | log partition n-undecane / HPLC water, unbuffered, traces of methanol / DMSO [2]: -0.8904 log10 | log partition oleylalcohol / HPLC water, unbuffered, traces of methanol / DMSO [2]: -0.3433 log10 | log partition toluene / HPLC water, unbuffered, traces of methanol / DMSO [2]: -1.077 log10

CC(C)C1(C)N=C(c2nc3ccccc3cc2C(=O)O)NC1=O (stereo not drawn)
log partition 1-octanol / HPLC water, unbuffered, traces of methanol / DMSO [1]: -0.1003 log10 | log partition butyl acetate / HPLC water, unbuffered, traces of methanol / DMSO [1]: 0.3218 log10 | log partition chloroform / HPLC water, unbuffered, traces of methanol / DMSO [1]: -1.426 log10 | log partition cyclohexane / HPLC water, unbuffered, traces of methanol / DMSO [1]: -1.269 log10 | log partition dichloromethane / HPLC water, unbuffered, traces of methanol / DMSO [1]: -0.4187 log10 | log partition n-hexane / HPLC water, unbuffered, traces of methanol / DMSO [1]: -0.9732 log10 | log partition n-octane / HPLC water, unbuffered, traces of methanol / DMSO [1]: -1.466 log10 | log partition n-undecane / HPLC water, unbuffered, traces of methanol / DMSO [1]: -1.153 log10 | log partition oleylalcohol / HPLC water, unbuffered, traces of methanol / DMSO [1]: 0.635 log10 | log partition toluene / HPLC water, unbuffered, traces of methanol / DMSO [1]: -0.5162 log10 | log partition 1-octanol / HPLC water, unbuffered, traces of methanol / DMSO [2]: 0.3193 log10 | log partition butyl acetate / HPLC water, unbuffered, traces of methanol / DMSO [2]: -0.573 log10 | log partition chloroform / HPLC water, unbuffered, traces of methanol / DMSO [2]: -0.8011 log10 | log partition cyclohexane / HPLC water, unbuffered, traces of methanol / DMSO [2]: -1.428 log10 | log partition dichloromethane / HPLC water, unbuffered, traces of methanol / DMSO [2]: -0.4847 log10 | log partition n-hexane / HPLC water, unbuffered, traces of methanol / DMSO [2]: -1.375 log10 | log partition n-octane / HPLC water, unbuffered, traces of methanol / DMSO [2]: -1.474 log10 | log partition n-undecane / HPLC water, unbuffered, traces of methanol / DMSO [2]: -1.445 log10 | log partition oleylalcohol / HPLC water, unbuffered, traces of methanol / DMSO [2]: -0.2597 log10 | log partition toluene / HPLC water, unbuffered, traces of methanol / DMSO [2]: -1.419 log10

OCCN(CCO)c1ccccc1
log partition 1-octanol / HPLC water, unbuffered, traces of methanol / DMSO [1]: 0.7171 log10 | log partition butyl acetate / HPLC water, unbuffered, traces of methanol / DMSO [1]: 0.3605 log10 | log partition chloroform / HPLC water, unbuffered, traces of methanol / DMSO [1]: -0.02211 log10 | log partition cyclohexane / HPLC water, unbuffered, traces of methanol / DMSO [1]: -1.946 log10 | log partition dichloromethane / HPLC water, unbuffered, traces of methanol / DMSO [1]: 0.1152 log10 | log partition n-hexane / HPLC water, unbuffered, traces of methanol / DMSO [1]: -1.82 log10 | log partition n-octane / HPLC water, unbuffered, traces of methanol / DMSO [1]: -2.014 log10 | log partition n-undecane / HPLC water, unbuffered, traces of methanol / DMSO [1]: -1.783 log10 | log partition oleylalcohol / HPLC water, unbuffered, traces of methanol / DMSO [1]: 0.6347 log10 | log partition toluene / HPLC water, unbuffered, traces of methanol / DMSO [1]: -1.086 log10 | log partition 1-octanol / HPLC water, unbuffered, traces of methanol / DMSO [2]: 0.493 log10 | log partition butyl acetate / HPLC water, unbuffered, traces of methanol / DMSO [2]: 0.5439 log10 | log partition chloroform / HPLC water, unbuffered, traces of methanol / DMSO [2]: 0.2882 log10 | log partition cyclohexane / HPLC water, unbuffered, traces of methanol / DMSO [2]: -0.9006 log10 | log partition dichloromethane / HPLC water, unbuffered, traces of methanol / DMSO [2]: 0.4782 log10 | log partition n-hexane / HPLC water, unbuffered, traces of methanol / DMSO [2]: -1.209 log10 | log partition n-octane / HPLC water, unbuffered, traces of methanol / DMSO [2]: -0.9336 log10 | log partition n-undecane / HPLC water, unbuffered, traces of methanol / DMSO [2]: -1.048 log10 | log partition oleylalcohol / HPLC water, unbuffered, traces of methanol / DMSO [2]: 0.1818 log10 | log partition toluene / HPLC water, unbuffered, traces of methanol / DMSO [2]: -0.4224 log10

Cc1cc2c3c(c1)C(c1ccccc1)=N[C@@H](NC(=O)c1ccncc1)C(=O)N3CC2
log partition 1-octanol / HPLC water, unbuffered, traces of methanol / DMSO [1]: 2.552 log10 | log partition butyl acetate / HPLC water, unbuffered, traces of methanol / DMSO [1]: 2.569 log10 | log partition chloroform / HPLC water, unbuffered, traces of methanol / DMSO [1]: 2.171 log10 | log partition cyclohexane / HPLC water, unbuffered, traces of methanol / DMSO [1]: 0.1916 log10 | log partition dichloromethane / HPLC water, unbuffered, traces of methanol / DMSO [1]: 2.144 log10 | log partition n-hexane / HPLC water, unbuffered, traces of methanol / DMSO [1]: -0.2402 log10 | log partition n-octane / HPLC water, unbuffered, traces of methanol / DMSO [1]: -0.1186 log10 | log partition n-undecane / HPLC water, unbuffered, traces of methanol / DMSO [1]: -0.161 log10 | log partition oleylalcohol / HPLC water, unbuffered, traces of methanol / DMSO [1]: 2.273 log10 | log partition toluene / HPLC water, unbuffered, traces of methanol / DMSO [1]: 2.127 log10 | log partition 1-octanol / HPLC water, unbuffered, traces of methanol / DMSO [2]: 1.331 log10 | log partition butyl acetate / HPLC water, unbuffered, traces of methanol / DMSO [2]: 2.844 log10 | log partition chloroform / HPLC water, unbuffered, traces of methanol / DMSO [2]: 1.438 log10 | log partition cyclohexane / HPLC water, unbuffered, traces of methanol / DMSO [2]: 0.6947 log10 | log partition dichloromethane / HPLC water, unbuffered, traces of methanol / DMSO [2]: 2.402 log10 | log partition n-hexane / HPLC water, unbuffered, traces of methanol / DMSO [2]: -0.4559 log10 | log partition n-octane / HPLC water, unbuffered, traces of methanol / DMSO [2]: 0.088 log10 | log partition n-undecane / HPLC water, unbuffered, traces of methanol / DMSO [2]: 0.07291 log10 | log partition oleylalcohol / HPLC water, unbuffered, traces of methanol / DMSO [2]: 1.282 log10 | log partition toluene / HPLC water, unbuffered, traces of methanol / DMSO [2]: 1.875 log10

CN(C1CCCCC1)S(=O)(=O)c1ccccc1N
log partition 1-octanol / HPLC water, unbuffered, traces of methanol / DMSO [1]: -0.8134 log10 | log partition butyl acetate / HPLC water, unbuffered, traces of methanol / DMSO [1]: 0.2235 log10 | log partition chloroform / HPLC water, unbuffered, traces of methanol / DMSO [1]: 0.4748 log10 | log partition cyclohexane / HPLC water, unbuffered, traces of methanol / DMSO [1]: -0.5397 log10 | log partition dichloromethane / HPLC water, unbuffered, traces of methanol / DMSO [1]: 0.1793 log10 | log partition n-hexane / HPLC water, unbuffered, traces of methanol / DMSO [1]: -0.5682 log10 | log partition n-octane / HPLC water, unbuffered, traces of methanol / DMSO [1]: -0.5115 log10 | log partition n-undecane / HPLC water, unbuffered, traces of methanol / DMSO [1]: -0.8537 log10 | log partition oleylalcohol / HPLC water, unbuffered, traces of methanol / DMSO [1]: -0.9123 log10 | log partition toluene / HPLC water, unbuffered, traces of methanol / DMSO [1]: -0.3194 log10 | log partition 1-octanol / HPLC water, unbuffered, traces of methanol / DMSO [2]: 1.192 log10 | log partition butyl acetate / HPLC water, unbuffered, traces of methanol / DMSO [2]: 0.997 log10 | log partition chloroform / HPLC water, unbuffered, traces of methanol / DMSO [2]: 0.5005 log10 | log partition cyclohexane / HPLC water, unbuffered, traces of methanol / DMSO [2]: 0.7696 log10 | log partition dichloromethane / HPLC water, unbuffered, traces of methanol / DMSO [2]: 1.312 log10 | log partition n-hexane / HPLC water, unbuffered, traces of methanol / DMSO [2]: 0.8609 log10 | log partition n-octane / HPLC water, unbuffered, traces of methanol / DMSO [2]: 0.7922 log10 | log partition n-undecane / HPLC water, unbuffered, traces of methanol / DMSO [2]: 0.7687 log10 | log partition oleylalcohol / HPLC water, unbuffered, traces of methanol / DMSO [2]: 1.252 log10 | log partition toluene / HPLC water, unbuffered, traces of methanol / DMSO [2]: 0.9027 log10
